“Also recorded” adds a separate entry of the source. Marks after values point to notes of the source that are not given here.
Tested on: dairy cows having a high milk performance (German Holstein cattle)
Test: Feeding study of trans-hex-2-enal and hexanal on feed intake, feed intake behavior, milk performance and milk composition of dairy cows
Assay type: in vivo
Settings: for FMI (fresh matter intake): 4.3 g/cow/day in TMR via wheat bran premix, control 43.6; for FMI (fresh matter intake) / Milk protein yield / Milk fat yield / DMI (% of BW) / Milk protein / Milk fat / DMI / ECM (energy-corrected milk) / Milk yield / Eating period / Frequency of visits: LSQ means; for FMI (fresh matter intake) / DMI / Eating period: p < 0.05; for Milk protein yield / Milk fat yield / DMI (% of BW) / Milk protein / Milk fat / DMI / ECM (energy-corrected milk) / Milk yield / Eating period / Frequency of visits: 4.3 g/cow/day in TMR; for Milk protein yield: control 1.04; for Milk fat yield: control 1.16; for DMI (% of BW): control 3.3; for Milk protein: control 3.36; for Milk fat: control 3.69; for DMI: control 22.2; for ECM (energy-corrected milk): control 30.2; for Milk yield: control 31.6; for Eating period: control 184; for Frequency of visits: visits to feed trough per day, control 33.1, p < 0.0001; for dry matter intake (DMI) compared with the control group, in words: A vs control p<0.067, B vs control p<0.0234; for visits to the feed trough: control 33.1 visits per day; for fresh matter intake (FMI) compared with the control group, in words: p<0.0001; for more frequent visits to the feed trough than the control group: per day, versus control group
Description: The purpose of the present study is to establish whether 4.3 g/cow/day of trans-hex-2-enal or 4.3 g/cow/day of hexanal affect the DMI value, the milk performance, the milk composition or the feed intake behavior (duration, frequency, etc.) of dairy cows.
The start of the study was calendar week 18 of the experimental year and the end of the study was calendar week 24 of the same year. The feed consumption was determined by means of feed troughs with electronic weight determination, produced by Insentec B.V. (Marknesse, Netherlands). The system identifies each animal by scanning the respective transponder on the neck band of the respective cow using a light barrier. After identification, the animal is allowed free access to the feed trough and the amount of feed taken in on each visit to the trough is recorded automatically.
The system thus determines all visits of each cow to the feed trough, the respective feed intake and the duration of the respective visit. The feed troughs were filled once a day at about 06.30 hours in the morning with an amount of about 70 kg of feed, after the residual feed of the previous day had been removed. During the morning milking, the feed troughs were closed for cleaning for a period of 20 to 30 minutes.
The milk yield was determined individually during each milking process and recorded by the Herd Management Software DairyPlan C21 (GEA Farm Technologies, Boenen, Germany). The cows were milked twice daily at 05.00 hours in the morning and 15.30 hours in the afternoon. Fresh water was freely available at all times.
Every Monday, after each milking, milk samples were taken and, for each cow, the milk composition (fat, protein, somatic cell count) was determined. The energy-corrected milk value (ECM) was determined according to the following equation: […]
All of the cows received a total mixed ration (TMR) (table 2) having a calculated mean daily feed intake of 22 kg of dry matter (DM). Trans-hex-2-enal and hexanal were added to the TMR and thus fed by a premix with wheat bran (trans-hex-2-enal/wheat bran for group A and hexanal/wheat bran for group B).
Samples of the TMR were withdrawn daily from each of the rations, combined to form a weekly sample and frozen until determination of the DM content of the TMRs. Samples of all feed components were taken every 14 days, frozen and pooled over the entire feeding trial up until laboratory analysis.
A standard model for statistical analysis using all parameters was adapted to the weekly data. This is a general, linear, mixed model with the cow as a chance effect and containing the following co-variables:
For the treatment effect, an “overall” P value was presented, and also a P value for the differences between the groups, which were tested both adapted and also non-adapted by means of the Tukey test.

## CCCCCC=O [Hexanal, hexanal]
4.3 g/cow/day
  daily FMI value, mean: 48.3 kg FMI per day
  daily milk production and milk composition compared with the control group, in words: no differences
  dry matter intake (DMI) compared with the control group, in words: significant advantage
  visits to the feed trough: 45.2 times per day
  fresh matter intake (FMI) compared with the control group, in words: higher; also recorded: significantly increased
  more frequent visits to the feed trough than the control group: 37%
  FMI (fresh matter intake): 48.3^b kg/d
  Milk protein yield: 1.06 kg/day
  Milk fat yield: 1.22 kg/day
  DMI (% of BW): 3.7 % of BW
  Milk protein: 3.28%
  Milk fat: 3.77%
  DMI: 23.8^b kg/d
  ECM (energy-corrected milk): 31.3 kg/day
  Milk yield: 32.7 kg/day
  Eating period: 212^b min
  Frequency of visits: 45.2^b

## CCC/C=C/C=O [Trans-hex-2-enal]
4.3 g/cow/day
  daily milk production and milk composition compared with the control group, in words: no differences
  dry matter intake (DMI) compared with the control group, in words: significant advantage
  visits to the feed trough: 48.6 times per day
  fresh matter intake (FMI) compared with the control group, in words: higher; also recorded: significantly increased
  more frequent visits to the feed trough than the control group: 47%
  FMI (fresh matter intake): 47.8^b kg/d
  Milk protein yield: 1.06 kg/day
  Milk fat yield: 1.19 kg/day
  DMI (% of BW): 3.6 % of BW
  Milk protein: 3.26%
  Milk fat: 3.66%
  DMI: 23.5^ab kg/d
  ECM (energy-corrected milk): 31.1 kg/day
  Milk yield: 33.1 kg/day
  Eating period: 206^ab min
  Frequency of visits: 48.6^b

From patent US20150305372A1, “FEED INTAKE OF RUMINANTS USING GREEN FODDER FLAVORS” (BASF SE, priority 2014, published 2015)
